These results are taken from patent publication US20200146973A1, “Pharmaceutical Composition for Oral Delivery of Hydrophobic Small Molecule Drug and Hydrophilic Small Molecule Drug Concurrently” (National Tsing Hua University, priority 2016, published 2020).

The conditions of series [1]: Lewis, rat, in vivo.
Protocol: (§1) The pharmacokinetics of the pharmaceutical composition of the present disclosure is analyzed in this experiment. There are two groups, the rats are oral administered of the pharmaceutical composition of the present disclosure with 12 mg/kg of paclitaxel and 12 mg/kg of gemcitabine as the oral group, and the rats are tail intravenous injected at a dose of 12 mg/kg of paclitaxel and 12 mg/kg of gemcitabine as the I.V. group. After administration, blood of rat is collected from the tail vein at 0.5, 1, 2, 3, 4, 6, 8, 10, 12, 24, 48 hours, and plasma of rat is obtained after centrifugation. After treatment, the drug concentration is quantified by HPLC.
(§2) For quantifying gemcitabine (hereafter GEM), tetrahydrouridine (10 mM, 10 μL) is added, and 2 mL of an organic mixture (15% isopropanol in ethyl acetate) is added into 100 μL of the plasma. After mixing, the supernatant is centrifuged, dried, and then dissolved in the mobile phase to perform HPLC. Mobile phase is 0.1 M ammonium acetate:acetonitrile=98:2. For quantifying paclitaxel (hereafter PTX), 400 μL of acetonitrile is added into 100μL of plasma. After mixing well, the sample is centrifuged to remove the supernatant. Then 100 μL of ZnSO4 (10% w/v aqueous solution) is added. After mixing well, the sample is centrifuged to remove the supernatant. Then 1 mL of ethyl acetate is added. After mixing well, the sample is centrifuged to remove the supernatant, and then dried. Then the sample is dissolved in methanol to perform HPLC. Mobile phase is H2O:acetonitrile=90:10.
The nature of the next series: in vivo. The following applies: Lewis, rat, 12 mg/kg.
The nature of series [2]: In vivo transport route by immunofluorescence staining (small intestine, MLNs, tumor; CLSM). Also on record: species or system Lewis rats. The following applies: oral capsule, DiO and Rhodamine B 12 mg/kg each, 6 hours after administration, FIG. 11. An excerpt:
In addition to the comprehensive in vitro characterization of the pharmaceutical composition of the present disclosure, determination of the biodistribution of these lipid oil drops following in vivo administration is crucial because they act at the site of accumulation. To trace the pharmaceutical composition of the present disclosure in rats, DiO and Rhodamine B are used as fluorescent model drug for hydrophobic small molecule drug and hydrophilic small molecule drug, respectively.
The animal studies involved Lewis rats with masses of approximately 250 g and are performed in compliance with the “Guide for the Care and Use of Laboratory Animals”, which was prepared by the Institute of Laboratory Animal Resources, National Research Council, and published by the National Academy Press in 1996. The Institutional Animal Care and Use Committee of National Tsing Hua University approved all studies. To prepare the enteric-coated gelatin capsules for use in this experiment, hard gelatin capsules (size 9; Torpac Inc., Fairfield, N.J., U.S.A.) are manually filled with a powdered mixture of Rhodamine B (1 mg), DiO (1 mg), capric acid (18 mg), citric acid (6 mg), and sodium bicarbonate (5 mg), as per the manufacturer's instructions. […]

Series [3] can be described thus: Ex vivo IVIS biodistribution of fluorescent model drugs in major organs. Also on record: species or system rats. The following applies: FIG. 14. As for the experimental part:
Further, ex vivo imaging of the distributions of different drugs in the major organs that are isolated from the test rats was conducted using an in vivo imaging system (IVIS). The rats are oral administrated a dose of 12 mg/kg of DiO and 12 mg/kg of Rhodamine B as an experiment group, and tail intravenous injected the same dose of DiO and Rhodamine B as an I.V. control group. In addition, the rats are intraperitoneally injected cycloheximide 1 hour before oral administration to block lymphatic absorption as a control group. The animals are sacrificed 6 hours after the feeding and 1 hour after the tail intravenous injection. At the time of maximum accumulation, the rats are sacrificed to remove the main organs (heart, lung, liver, spleen, pancreas and kidney) and the distribution of the fluorescent dye is observed by IVIS.

Series [4] in a line: Pharmacokinetics in rats after I.V. injection or oral administration, plasma drug concentration quantified by HPLC.
Protocol: as §1, §2
The next series relates to RAW 264.7 cells. Kind of series: Uptake of emulsion containing DiO and Rhodamine B by RAW 264.7 cells (CLSM). The class given is cell-based. The following applies: 3 hours of incubation, FIG. 12. Here is the method:
To understand better the route of drug delivery, RAW 264.7 cells are added the prepared emulsion containing DiO and Rhodamine B and then cultured for 3 hours. The unabsorbed emulsion is washed with PBS, and then the cells are fixed with formalin, stained, and observed with the CLSM. In addition, the rats are oral administrated with the enteric-coated gelatin capsules that contained the pharmaceutical composition of the present disclosure (the dose of DiO and Rhodamine B is 12 mg/kg, respectively). The animals are sacrificed 6 hours after oral administration, the MLNs are retrieved from euthanized rats, and the tissues are fixed in formalin for 4 hours at room temperature. Then the tissue was cut to size and embedded in OCT gel for frozen section and subsequent staining. The sections are finally examined by CLSM.

[5] abbreviates: Lewis, rat, plasma, iv, 12 mg/kg.
[6] abbreviates: Lewis, rat, plasma, po, 12 mg/kg.
[7] abbreviates: Oral group, 12 mg/kg each, rat plasma.

Where two headings read alike, the source gives them in different places.

The term bioavailability denotes dose-corrected exposure relative to a reference, in per cent. High values mean good availability, low ones poor availability. As a reminder, the AUC is concentration integrated over time. A lower AUC goes with low exposure. In general, Cmax refers to the highest concentration seen after dosing. In general, MRT refers to the average time that molecules of a dose stay in the body. A word on the half-life: it is the time needed for the level to fall by half in the phase considered. Turning to `CC(=O)O[C@H]1C(=O)[C@@]2(C)[C@H]([C@H](OC(=O)c3ccccc3)[C@]3(O)C[C@H](OC(=O)[C@H](O)[C@@H](NC(=O)c4ccccc4)c4ccccc4)C(C)=C1C3(C)C)[C@]1(OC(C)=O)CO[C@@H]1C[C@@H]2O` [PTX, paclitaxel], in series [1] (iv), the “time post-administration after which the concentration cannot be detected” value stood at 6 h. Further, the AUMC in series [1] (iv, 12 mg/kg) worked out at 39.21 μg h^2/mL. Also, in series [1] (po), the “time at which the concentration reaches the highest peak, post-administration” value was 6 h and the “time post-administration within which the concentration still can be detected” value was at most 12 h. Also, in series [1] (po, 12 mg/kg), the AUMC stood at 52.32 μg h^2/mL, the CL is 23 mL/min/kg and the Tmaxz is 8.00 h. The molecule further registered a bioavailability in “in vivo” of 59.2%. In the series “in vivo” (iv), this molecule had an AUC of 23600 ng·h/mL, a Cmax of 20000 ± 5010 ng/mL, a mean residence time (MRT) of 1.66 h and a clearance of 7 mL/min/kg. For the same molecule, in the series “in vivo” (iv), the half-life was 10.2 h. Moreover, in “in vivo” (po), the AUC is 7250 ng·h/mL, the Cmax stood at 1010 ± 970 ng/mL, the MRT was found to be 7.22 h and the half-life is 14.4 h.

In the case of `CCN(CC)c1ccc2c(-c3ccccc3C(=O)O)c3ccc(=[N+](CC)CC)cc-3oc2c1.[Cl-]` [Rhodamine B], the “location of fluorescent signals (immunofluorescence staining)” value in series [2] was “located on the lateral surfaces of the villi, Peyer's patches and tumor”. Moreover, the “organ accumulation (ex vivo IVIS)” value is “accumulated in liver, pancreas and kidneys” in series [3] (I.V. control group, tail intravenous injection 12 mg/kg each, 1 hour); “accumulated in liver, pancreas and the lateral surfaces of intestinal tract” in series [3] (control group, cycloheximide intraperitoneally 1 hour before oral administration, 6 hours); “accumulated in liver, pancreas and the lateral surfaces of intestinal tract” in series [3] (experiment group, oral 12 mg/kg each, 6 hours).

On to `Nc1ccn([C@@H]2O[C@H](CO)[C@@H](O)C2(F)F)c(=O)n1` [GEM, gemcitabine], for which the “time post-administration after which the concentration cannot be detected” value in series [1] (iv) was found to be 6 h. In series [1] (iv, 12 mg/kg), this molecule came in with an AUMC of 135.11 μg h^2/mL. For the same molecule, the “time post-administration within which the concentration still can be detected” value in series [1] (po) is at most 12 h. Moreover, the AUMC in series [1] (po, 12 mg/kg) came to 131.19 μg h^2/mL. In series [4] (setting [5]), this molecule gave an AUC of 41100 ng·h/mL, a Cmax of 16700 ± 4380 ng/mL, an MRT of 3.28 h and a clearance of 4 mL/min/kg. In series [4] (setting [5]), this molecule had a half-life of 2.36 h. Besides, the bioavailability in series [4] (Lewis, rat, plasma, oral, 12 mg/kg) amounted to 56.8%. In series [4] (setting [6]), this molecule gave an AUC of 23400 ng·h/mL, a Cmax of 3620 ± 1380 ng/mL, an MRT of 5.61 h and a half-life of 6.13 h. For the same molecule, in series [4] (setting [7]), the CL came out at 7.17 mL/min/kg and the Tmaxz came out at 4.00 h. Further, the “time at which the concentration reaches the highest peak, post-administration” value in series [4] (Oral group, FIG. 15B) was determined as 4 h.

Take `CCCCCCCCCCCCCCCCCCN1/C(=C\C=C\c2oc3ccccc3[n+]2CCCCCCCCCCCCCCCCCC)Oc2ccccc21.[O-][Cl+3]([O-])([O-])[O-]` [DiO]: the “uptake into cells (colocalization of DiO and DAPI fluorescence)” value with RAW 264.7 cells is “can be uptake into RAW 264.7 cells”.
